Laboratory results published in US20250339391A1, “METHODS FOR EFFECTIVE MANAGEMENT OF PAIN” (South Rampart Pharma, Inc., priority 2024, published 2025).
“Also recorded” adds a separate entry of the source.

How the values were obtained:
male Sprague-Dawley rats [1] = test: Neuropharmacological profile (modified Irwin/FOB) in Sprague-Dawley rats (GLP); type: in vivo, rat
Experimental: Any potential neuropharmacological effects of orally administered SRP-001 in rats were assessed in three groups of eight male Sprague-Dawley rats. Each was orally administered SRP-001 at a single dose of 220, 440, or 660 mg/kg. Vehicle (10% labrasol: 10% DMSO: 80% PEG400) was administered to an additional group of eight rats. The dose volume was 10 mL/kg. […] All observations were made at ±5 min for the observations through 1 h post-dose and ±15 min for the later observations. Body temperature was measured 1 h following dose administration.

male Sprague-Dawley rats [2] = conditions: rat, in vivo
Experimental: 1) Dose-Range-Finding Oral Toxicity Study with SRP-001 in Sprague-Dawley Rats (non-GLP) As part of a two-phase study, the maximum tolerated dose (MTD) of SRP-001 when administered via gavage once to Sprague-Dawley Rats using an ascending/descending dose design (Calvert Labs/Altasciences, Scott Township, PA USA). A total of 12 male Sprague-Dawley rats (3/dose group), approximately 8-9 weeks old and weighing 245-307 g, were administered single doses of […], 1000, 1500, or 2000 mg/kg SRP-001. Mortality/morbidity was performed twice daily and once prior to scheduled sacrifice. Clinical observations were evaluated prior to each dose administration and approximately 1-3 h post-dose, once daily on non-dosing days and additionally as needed. Body weights were recorded for animals in Groups 1-4 prior to randomization/selection, each dose administration, and scheduled sacrifice on day 3. Food consumption was recorded on day 3. […] Based on the results of this study, doses for the second phase were selected.

dog = conditions: in vivo
Experimental: To determine the appropriate doses, maximum tolerated dose studies (non-GLP) were conducted prior to the definitive GLP systemic toxicity studies. SRP-001 was evaluated by a full battery of GLP-compliant toxicity studies. Systemic toxicity was evaluated in Sprague-Dawley rats and Beagle dogs by oral administration over 28 days (FIG. 24 and FIGS. 27-28, Table 2). […]

Sprague-Dawley rats = test: 5-day repeat-dose oral toxicity and toxicokinetics in Sprague-Dawley rats (non-GLP); type: in vivo, rat
Experimental: 4) A Dose-Range-Finding Oral Toxicity Study with SRP-001 in Sprague-Dawley Rats (Non-GLP) As part of a two-phase study, repeat-dose toxicity and toxicokinetics of SRP-001, when administered via oral gavage once daily to Sprague-Dawley rats for 5 d, was done (Calvert Labs/Altasciences, Scott Township, PA USA). The doses selected for Phase II were based on the results of Phase I. SRP-001 was administered to 20 naïve rats (5/group in Groups 5-8) once daily for 5 days via oral gavage for toxicology evaluation and once to 18 naïve rats (6/group in Groups 9-11) for toxicokinetic evaluation.
Mortality/morbidity was performed twice daily and once prior to sacrifice. Clinical observations were evaluated prior to each dose administration and approximately 1-3 h post-dose for animals in Groups 5-8. Body weights were recorded prior to randomization/selection, prior to dose administration on day 1 for animals in Groups 5-11, and prior to dose administration on day 5 for Groups 5-8. Food consumption was recorded for animals from Groups 5-8 on day 5. Blood for evaluation of hematology, coagulation and clinical chemistry and urine for urinalysis was collected from animals in Groups 5-8 on day 6. All animals in Groups 5-8 were sacrificed on […]. Selected tissues were harvested at necropsy, selected organs weighed, and selected tissues preserved. Blood for toxicokinetic evaluation was collected from animals in Groups 9-11 at selected timepoints on day 1 to ensure comprehensive data capture. These timepoints include 0 hour (pre-dose) and post-dose intervals of 1, 2, 4, 8, and 24 hours on both Day 1 and […] of the study. This schedule allows for a robust assessment of SRP-001's pharmacokinetic profile, including absorption, distribution, metabolism, and excretion and is in line with current FDA-guidelines for GLP studies.

Beagle dogs = conditions: dog, in vivo
Experimental: 8) A 28-day Oral Toxicity Study of SRP-001 in Beagle Dogs with a 14-day Recovery (GLP study) SRP-001 was supplied by Olon Ricerca Bioscience as an off-white powder. The test article was then prepared into dosing suspensions for oral administration via gavage (Calvert Labs/Altasciences, Scott Township, PA USA). Thirty-two experimentally naïve Beagle dogs (16 males and 16 females), 8-9 months old and weighing 6.7-10.5 kg for males and females at the outset of the study, were administered 0, 165, 330, or 495 mg/kg/d. Animals were dosed three times daily (3-5 h between doses) for 28 consecutive days. Prior to this dosing schedule, the dosing was initiated with once daily dosing at 0, 100, 300, or 900 mg/kg at a dose volume of 5 to 10 ml/kg. Due to adverse clinical signs noted following dosing of all groups at a dose volume of 10 ml/kg, dosing of the animals was suspended on day 2 for males and day 1 for females. The study was restarted with T.I.D. dosing in lower dose volume to reduce vehicle-related toxicity.
In-life data from the initial start of the study using once daily dosing were not included in the report but are maintained in the study file. Following the restart of the study, the study was conducted as follows. Mortality/morbidity was performed twice daily and once prior to the scheduled sacrifice. Animals were observed prior to each dose administration and 1-3 h after each dose administration. Animals were also observed once daily on non-dosing days and once prior to scheduled sacrifice. Body weights were recorded prior to randomization/selection, prior to the first dose administration on day 1 and weekly thereafter. Food consumption was determined daily. Ophthalmology examinations and electrocardiograms were performed before treatment initiation and during the last week of dosing. Blood for evaluation of hematology, coagulation and clinical chemistry and urine for urinalysis was collected prior to treatment initiation and on days 29 and 43. Blood for toxicokinetic evaluation was collected at selected timepoints on days 1 and 28. All surviving animals were sacrificed on day 29 or day 43. Selected tissues were harvested at necropsy, selected organs weighed, and selected tissues evaluated microscopically.

CCN(CC)C(=O)c1ccccc1S(=O)(=O)NCC(=O)Nc1ccc(O)cc1 [SRP-001, N,N-diethyl-2-[[2-(4-hydroxyanilino)-2-oxo-ethyl]sulfamoyl]benzamide]
body temperature versus vehicle (male Sprague-Dawley rats [1]; 660 mg/kg, 1 h post-dose): significantly (p≤0.05) lower; also recorded: lower body temperature
neuropharmacological or clinical signs (male Sprague-Dawley rats [1]; 220, 440 or 660 mg/kg oral, through 24 h post-dose): No apparent neuropharmacological or clinical signs were observed
clinical observations after single dose (male Sprague-Dawley rats [2]): Nearly all the animals appeared normal following dosing
mortality after single doses (male Sprague-Dawley rats [2]): did not result in any mortality
mortality after single doses (dog): did not result in any mortality
liver weights and cholesterol (Sprague-Dawley rats; 5 days oral gavage): increases in absolute and relative liver weights and increased cholesterol levels
tolerated dose (Sprague-Dawley rats; Sprague-Dawley, rat, in vivo, 5 d): 1200 mg/kg
AUC and Cmax levels (Sprague-Dawley rats; day 1 toxicokinetics): increased in a dose-dependent manner
half-life (Sprague-Dawley rats; high dose): 6.86 h
Tmax (Sprague-Dawley rats; low dose): 3 h
Tmax (Sprague-Dawley rats; mid and high doses): 4.5 h
half-life (Sprague-Dawley rats; mid dose): 6.19 h
reversibility after 14-d recovery (Beagle dogs; both, Beagle, 14 d): nearly all SRP-001-related changes observed on day 29 were reversible
no-adverse-effect level (Beagle dogs; both, Beagle, 28 d): 330 mg/kg/day
doses without treatment-related adverse effects (Beagle dogs; both, Beagle, po, 28 d): up to 330 mg/kg/day
hematology finding (Beagle dogs): regenerative anemia
